According to US5968910A, “Compositions containing two or three inhibitors of different HIV reverse transcriptases” (priority 1994, dated 1999):
Values after ≈ are worked out from the molar mass of the structure shown. Read-outs that look alike come from different tables or passages of the source.

What was measured:
HIV-1(IIIB) = test: Knock-out concentrations: breakthrough of HIV-1(IIIB)-induced cytopathicity in CEM cell cultures; assay type: cell-based; settings: Human immunodeficiency virus 1, IIIB, CCRF-CEM, read-out: HIV-1-induced cytopathicity in cell culture; for activity at 0.1 µg/mL: 0.1 μg/ml; for activity at 0.5 µg/mL: 0.5 μg/ml; for activity at 2.5 µg/mL: 2.5 μg/ml
Experimental: The culture medium consisted of RPMI 1640 containing 10% fetal bovine serum, 2 mM L-glutamine, and 0.075% NaHCO3. The multiplicity of the initial infection was ~1000 times the CCID50 (50% cell culture infective dose). Passages were performed every 3 to 4 days by adding 0.5 to 1.0 ml of the infected culture supernatant to 5 ml of a suspension containing 4×10^5 uninfected CEM cells per ml. Syncytium formation was used as a parameter of virus breakthrough in the cell cultures. In the drug combination experiments, the compounds were combined at the same initial concentrations as used for the two lowest concentrations in the single-drug experiments.
The drug concentrations were kept constant throughout the whole time period of the experiment (10 subcultivations or 35 days). Then the drugs were removed from the cell cultures, and the cells were further subcultured for at least 5 additional passages.

[1] = tested on: HIV-1/TIBO R82150 (100-Ile); test: Sensitivity of mutant HIV-1 strain in CEM cell cultures; assay type: cell-based; settings: Human immunodeficiency virus 1, CCRF-CEM; CEM cells, Table 1; read-out: 50% Effective Concentration
Experimental: (§1) CEM cells were suspended at 250,000 cells per ml of culture medium and infected with wild-type HIV-I(IIIB) or mutant HIV-1 strains at 100 50% cell culture infective doses per ml. Then 100 μl of the infected cell suspensions was added to 200-μl microtiter plate wells containing 100 μl of an appropriate dilution of the test compounds. After 4 days incubation at 37° C., the cell cultures were examined for syncytium formation.

[2] = tested on: HIV-1/TIBO R82913 (103-Asn); test: as above; assay type: cell-based; settings: Human immunodeficiency virus 1, CCRF-CEM; CEM cells, Table 1; read-out: 50% Effective Concentration
Experimental: as §1

HIV-1/Pyr (181-Cys) = test: as above; assay type: cell-based; settings: Human immunodeficiency virus 1, CCRF-CEM; CEM cells, Table 1; read-out: 50% Effective Concentration
Experimental: as §1

HIV-1/Nev (106-Ala) = test: as above; assay type: cell-based; settings: Human immunodeficiency virus 1, CCRF-CEM; CEM cells, Table 1; read-out: 50% Effective Concentration
Experimental: as §1

[3] = tested on: HIV-1/TSAO-m^3 T (138-Lys); test: as above; assay type: cell-based; settings: Human immunodeficiency virus 1, CCRF-CEM; CEM cells, Table 1; read-out: 50% Effective Concentration
Experimental: as §1

HIV-1(IIIB) (WT) = test: microbe, parasite or virus in culture; assay type: cell-based; settings: Human immunodeficiency virus 1, IIIB, CCRF-CEM; CEM cells, Table 1; read-out: 50% Effective Concentration
Experimental: as §1

HIV-1 RT (WT) = HIV-1 RT (WT) (Human immunodeficiency virus type 1 group M subtype B, UniProt P03366); test: biochemical; settings: substrate [2,8-3H]dGTP 2.95 μM, template poly(rC)oligo(dG); read-out: IC50, anti-HIV-1 RT (WT) activity (converted)
Experimental: The reaction mixture (50 μl) contained 50 mM Tris.HCl, pH 7.8, 5 mM dithiothreitol, […] glutathione, 500 μM EDTA, 150 mM KCl, 5 mM MgCl2, 1.25 μg of bovine serum albumin, a fixed concentration of the labeled substrate [2,8-^3 H]dGTP (2.95 μM, 2 μCi), a fixed concentration of the template/primer poly(C).oligo(dG) (0.1 mM), 0.06% Triton X-100, 5 μl of inhibitor solution [containing various concentrations (5-fold dilutions) of the test compounds], and 5 μl of the RT preparation. The reaction mixtures were incubated at 37° C. for 30 min, at which time 100 μl of calf thymus DNA (150 μg/ml), 2 ml of Na4 P2 07 (0.1 M in 1M HCl), and 2 ml of trichloroacetic acid (10%, v/v) were added. The solutions were kept on ice for 30 min, after which the acid-insoluble material was washed and analyzed for radioactivity.
Compounds I, III, IV and V were evaluated for their inhibitory effect on recombinant HIV-1 RT.

[4] = 936 h, day 39 post infection, compound absent from day 35
[5] = 1008 h, day 42 post infection, compound absent from day 35
[6] = 1104 h, day 46 post infection, compound absent from day 35
[7] = 1176 h, day 49 post infection, compound absent from day 35
[8] = 1272 h, day 53 post infection, compound absent from day 35

## CC(C)Nc1cccnc1N1CCN(C(=O)c2cc3ccccc3[nH]2)CC1 [BHAP U88204, reference compound]
HIV-1(IIIB); 96 h, day 4 post infection
  activity at 0.1 µg/mL: 0%
  activity at 0.5 µg/mL: 0%
  activity at 2.5 µg/mL: 0%
HIV-1(IIIB); 192 h, day 8 post infection
  activity at 0.1 µg/mL: 12.5%
  activity at 0.5 µg/mL: 0%
  activity at 2.5 µg/mL: 0%
HIV-1(IIIB); 264 h, day 11 post infection
  activity at 0.1 µg/mL: 50%
  activity at 0.5 µg/mL: 6.25%
  activity at 2.5 µg/mL: 0%
HIV-1(IIIB); 336 h, day 14 post infection
  activity at 0.1 µg/mL: 100%
  activity at 0.5 µg/mL: 6.25%
  activity at 2.5 µg/mL: 0%
HIV-1(IIIB); 408 h, day 17 post infection
  activity at 0.1 µg/mL: 100%
  activity at 0.5 µg/mL: 25%
  activity at 2.5 µg/mL: 0%
HIV-1(IIIB); 504 h, day 21 post infection
  activity at 0.1 µg/mL: 100%
  activity at 0.5 µg/mL: 75%
  activity at 2.5 µg/mL: 0%
HIV-1(IIIB); 600 h, day 25 post infection
  activity at 0.1 µg/mL: 100%
  activity at 0.5 µg/mL: 87.5%
  activity at 2.5 µg/mL: 0%
HIV-1(IIIB); 672 h, day 28 post infection
  activity at 0.1 µg/mL: 100%
  activity at 0.5 µg/mL: 100%
  activity at 2.5 µg/mL: 0%
HIV-1(IIIB); 768 h, day 32 post infection
  activity at 0.1 µg/mL: 100%
  activity at 0.5 µg/mL: 100%
  activity at 2.5 µg/mL: 0%
HIV-1(IIIB); 840 h, day 35 post infection
  activity at 0.1 µg/mL: 100%
  activity at 0.5 µg/mL: 100%
  activity at 2.5 µg/mL: 0%
HIV-1(IIIB); [4]
  activity at 0.1 µg/mL: 100%
  activity at 0.5 µg/mL: 100%
  activity at 2.5 µg/mL: 0%
HIV-1(IIIB); [5]
  activity at 0.1 µg/mL: 100%
  activity at 0.5 µg/mL: 100%
  activity at 2.5 µg/mL: 0%
HIV-1(IIIB); [6]
  activity at 0.1 µg/mL: 100%
  activity at 0.5 µg/mL: 100%
  activity at 2.5 µg/mL: 0%
HIV-1(IIIB); [7]
  activity at 0.1 µg/mL: 100%
  activity at 0.5 µg/mL: 100%
  activity at 2.5 µg/mL: 0%
HIV-1(IIIB); [8]
  activity at 0.1 µg/mL: 100%
  activity at 0.5 µg/mL: 100%
  activity at 2.5 µg/mL: 0%
[1]
  EC50: 0.75 µg/mL (≈ 2.06 µM)
[2]
  EC50: 1.7 µg/mL (≈ 4.68 µM)
HIV-1/Pyr (181-Cys)
  EC50: 0.4 µg/mL (≈ 1.1 µM)
HIV-1/Nev (106-Ala)
  EC50: 0.4 µg/mL (≈ 1.1 µM)
[3]
  EC50: 0.07 µg/mL (≈ 0.193 µM)
HIV-1(IIIB) (WT)
  EC50: 0.04 µg/mL (≈ 0.11 µM)
HIV-1 RT (WT)
  IC50: 1210 nM
